Experimental data: patent US20170088851A1, “METHODS FOR IMPROVING ABIOTIC STRESS RESPONSE” (The Regents of the University of California, priority 2011, published 2017)
Peptide text beside a SMILES is read from it. * marks the point of attachment. Cbz = O=C(OCc1ccccc1)*

What was measured:
[1] = system: N-end rule pathway of targeted proteolysis (NERP); assay: In vitro protein stability, heterologous rabbit reticulocyte lysate assay (TNT T7 Coupled Reticulocyte Lysate system, anti-HA immunoblot); format: biochemical; settings: for effect on in vitro stability of Arabidopsis Group VII ERFs: HA-tagged ERFs in reticulocyte lysate, 100 μM MG132 or 1 mM dipeptides; for MC-GUS degradation in the presence of the inhibitor: MC-GUS produced in rabbit reticulocyte lysate
Experimental: Protein stability analyses. Full length cDNAs were PCR amplified from either Arabidopsis thaliana or Oryza sativa L. (cv. M202 (Sub1)). N-terminal mutations were introduced using a specific forward primer. For in vitro assays, cDNAs were cloned into a modified version of the pTNT vector (Promega) to produce C-terminal HA fusions. Stability assays were performed using the TNT T7 Coupled Reticulocyte Lysate system (Promega), essentially as described previously^23. For in vivo analysis of EIRE-HA proteins, cDNAs were cloned into pE2c, mobilized into pB2GW7 and transformed into Arabidopsis using the floral dip method. To Assess relative protein stability, equal amounts of total protein extracted from 7-day old T3 homozygous seedlings were analyzed by Western blot, and cDNA synthesized from total RNA was used as a template for semi-quantitative PCR.
In vitro analysis of protein stability: To generate Arabidopsis and rice protein-HA fusions driven by the T7 promoter, cDNAs were PCR amplified from Arabidopsis total cDNA or submerged rice cDNA (M202 (Sub1); as described^3 and ligated into a modified version of the pTNT […] expression vector (pTNT3xHA). N-terminal mutations were incorporated by changing the forward primer sequences accordingly (Table 1). Proteins were expressed in vitro using the TNT T7 Coupled Reticulocyte Lysate system (Promega) according to manufacturer's guidelines, using 500 ng plasmid template. Where appropriate, 100 μM MG132 or 1 mM dipeptides (arg-β-ala or ala-ala; Sigma-Aldrich) and […] Bestatin (Sigma-Aldrich) were added. Reactions were incubated at 30° C., and samples were taken at appropriate time points before mixing with protein loading dye to terminate protein synthesis. Equal amounts of each reaction were subjected to anti-HA immunoblot analysis.
Immunoblotting: Proteins resolved by SDS-PAGE were transferred to PVDF using a MiniTrans-Blot electrophoretic transfer cell (Bio-Rad). Membranes were probed with primary antibodies at the following titres: anti-HA (Sigma-Aldrich), 1:1000; anti-α-tubulin (Sigma-Aldrich), 1:5,000, or anti-ribosomal protein 5636, (1:5,000). HRP conjugated anti-mouse secondary antibody (Santa Cruz) was used at a titre of 1:10,000. Immunoblots were developed to film using ECL Western blotting substrate (Pierce). Alignment of MC-ERF proteins from Arabidopsis and Rice: Rice and Arabidopsis ERF proteins starting with the sequence MC- were aligned and phylogenetic relationships observed using CLUSTALW37.
We investigated the possibility that all Arabidopsis Group VII ERFs as well as rice SUB1A-1 were NERP substrates.

HRE2 = assay: Western blot of HRE2 protein levels in vivo after cPTIO treatment; set-up: species or system Arabidopsis; settings: 35S CaMV promoter
Description: FIG. 14D Stability of the physiological substrate HRE2 is controlled by NO. Western blot showing levels of HRE2 protein in-vivo (constitutive gene transcription produced from the 35S CaMV promoter).

MC-GUS = assay: Western analysis of MC-GUS protein levels in seedlings treated with cPTIO; format: in vivo, Arabidopsis; settings: WT Col-0 seedlings treated with cPTIO
Description: FIG. 14C Stability of MC-GUS in Col-0 is related to NO.

maplA mutant seeds = assay: Seed sensitivity to ABA on germination in the presence of fumagillin; format: in vivo, Arabidopsis
Description: FIG. 13B Proteins initiating MC control seed sensitivity to ABA.

Row | Compound | effect on in vitro stability of Arabidopsis Group VII ERFs [1] | MC-GUS degradation in the presence of the inhibitor [1] | effect on HRE2 protein level (HRE2) | effect on MC-GUS protein level (MC-GUS) | seed sensitivity to ABA when germinated in the presence of fumagillin (maplA mutant seeds)
1 | CC(C)C[C@@H](C=O)NC(=O)[C@H](CC(C)C)NC(=O)[C@H](CC(C)C)NC(=O)OCc1ccccc1 [MG132] (Cbz-Leu-Leu-Leu-aldehyde) | stability was enhanced | not degraded | – | – | –
2 | Arg-Ala | stability was enhanced | not degraded | – | – | –
3 | CC1(C)N([O])C(c2ccc(C(=O)O)cc2)=[N+]([O-])C1(C)C [cPTIO] | – | – | stabilises the protein | MC-GUS protein accumulates | –
4 | CO[C@@H]1[C@H](OC(=O)/C=C/C=C/C=C/C=C/C(=O)O)CC[C@]2(CO2)[C@H]1[C@@]1(C)O[C@@H]1CC=C(C)C [fumagillin] | – | – | – | – | hypersensitive to ABA
